Measurements as given in ChEMBL document CHEMBL4219121, “Synthesis, antitumor activity and DNA binding features of benzothiazolyl and benzimidazolyl substituted isoindolines” (Bioorg Med Chem, 2018).
Activity calls are given as the source filed them. The rule behind the calls is not given here.

Experiments:
[1] = system: HepG2; experiment: Antiproliferative activity against human HepG2 cells after 72 hrs by MTT assay; assay type: functional, cell-based; conditions: HepG2, 72 h
[2] = system: HeLa; experiment: Antiproliferative activity against human HeLa cells after 72 hrs by MTT assay; assay type: functional, cell-based
[3] = system: SW-620; experiment: Antiproliferative activity against human SW620 cells after 72 hrs by MTT assay; assay type: functional, cell-based; conditions: SW-620, 72 h
[4] = system: MCF7; experiment: Antiproliferative activity against human MCF7 cells after 72 hrs by MTT assay; assay type: functional, cell-based; conditions: MCF7, 72 h
[5] = system: BJ; experiment: Antiproliferative activity against human BJ cells after 72 hrs by MTT assay; assay type: cell-based
[6] = system: Calf thymus DNA; experiment: Binding affinity to calf thymus DNA assessed as change in melting temperature at drug/DNA ratio of 0.5 by spectrophotmetric method; assay type: nucleic-acid assay; conditions: Bos taurus
[7] = system: Calf thymus DNA; experiment: Binding affinity to calf thymus DNA at 50 uM by circular dichroism spectral analysis; assay type: nucleic-acid assay; conditions: Bos taurus
[8] = system: CAKI-2; experiment: Cytotoxicity against human Caki2 cells after 72 hrs by MTT assay; assay type: functional, cell-based; conditions: CAKI-2, 72 h
[9] = Drug uptake in human Caki2 cells at 50 uM measured after 5 hrs by Phalloidin CruzFluorTM 488 conjugate/propidium iodide staining based fluorescence microscopic analysis; assay type: ADME, cell-based; conditions: caki-2, 5 h
[10] = system: Calf thymus DNA; experiment: Binding affinity to calf thymus DNA assessed as change in melting temperature at drug/DNA ratio of 1 by spectrophotmetric method; assay type: nucleic-acid assay; conditions: Bos taurus
[11] = Drug uptake in cytoplasm of human Caki2 cells at 50 uM measured after 5 hrs by Phalloidin CruzFluorTM 488 conjugate/propidium iodide staining based fluorescence microscopic analysis; assay type: ADME, subcellular; conditions: caki-2, 5 h
[12] = Drug uptake in nucleus of human Caki2 cells at 50 uM measured after 5 hrs by Phalloidin CruzFluorTM 488 conjugate/propidium iodide staining based fluorescence microscopic analysis; assay type: ADME, subcellular; conditions: caki-2, 5 h
[13] = system: Calf thymus DNA; experiment: Binding affinity to calf thymus DNA assessed as change in melting temperature at drug/DNA ratio of 0.25 by spectrophotmetric method; assay type: nucleic-acid assay; conditions: Bos taurus
[14] = target: T1, DNA topoisomerase 1 (Homo sapiens) (UniProt P11387); experiment: Poison activity at human topoisomerase1 assessed as accumulation of nicked DNA at 50 uM using supercoiled pUC19 as substrate pretreated with substrate for 45 mins followed by enzyme addition measured by agarose gel electrophoresis relative to control
T1 sequence (whole entry): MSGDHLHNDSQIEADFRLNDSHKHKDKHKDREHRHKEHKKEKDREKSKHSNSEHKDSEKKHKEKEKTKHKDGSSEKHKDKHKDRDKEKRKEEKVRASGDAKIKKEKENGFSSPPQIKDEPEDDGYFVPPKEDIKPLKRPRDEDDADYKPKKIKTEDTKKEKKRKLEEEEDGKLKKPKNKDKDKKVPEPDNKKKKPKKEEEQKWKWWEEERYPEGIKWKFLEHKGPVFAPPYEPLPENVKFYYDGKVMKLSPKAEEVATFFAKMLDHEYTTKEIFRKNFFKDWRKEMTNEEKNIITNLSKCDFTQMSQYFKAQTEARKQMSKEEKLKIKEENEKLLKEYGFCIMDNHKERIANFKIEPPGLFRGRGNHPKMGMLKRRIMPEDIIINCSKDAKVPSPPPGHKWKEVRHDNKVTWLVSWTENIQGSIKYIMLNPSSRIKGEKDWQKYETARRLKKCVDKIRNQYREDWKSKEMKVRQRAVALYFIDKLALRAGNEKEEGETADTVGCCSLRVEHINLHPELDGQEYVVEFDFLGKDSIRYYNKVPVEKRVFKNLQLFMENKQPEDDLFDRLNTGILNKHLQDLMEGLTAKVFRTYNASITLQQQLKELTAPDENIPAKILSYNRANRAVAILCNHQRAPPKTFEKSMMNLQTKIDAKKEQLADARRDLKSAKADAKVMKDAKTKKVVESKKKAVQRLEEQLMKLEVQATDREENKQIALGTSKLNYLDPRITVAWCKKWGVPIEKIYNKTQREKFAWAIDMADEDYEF

[15] = target: T1, DNA topoisomerase 1 (Homo sapiens); experiment: Inhibition of human topoisomerase1-mediated DNA relaxation assessed as DNA intercalation at 5 to 50 uM using supercoiled pUC19 as substrate pretreated with substrate for 45 mins followed by enzyme addition measured by agarose gel electrophoresis
[16] = system: Calf thymus DNA; experiment: Binding affinity to calf thymus DNA at 1 to 25 uM by circular dichroism spectral analysis; assay type: nucleic-acid assay; conditions: Bos taurus
[17] = target: T1, DNA topoisomerase 1 (Homo sapiens); experiment: Poison activity at human topoisomerase1 assessed as accumulation of nicked DNA at 5 to 50 uM using supercoiled pUC19 as substrate pretreated with substrate for 45 mins followed by enzyme addition measured by agarose gel electrophoresis
[18] = target: T1, DNA topoisomerase 1 (Homo sapiens); experiment: Poison activity at human topoisomerase1 assessed as accumulation of nicked DNA at 10 uM using supercoiled pUC19 as substrate pretreated with substrate for 45 mins followed by enzyme addition measured by agarose gel electrophoresis relative to control
[19] = target: T1, DNA topoisomerase 1 (Homo sapiens); experiment: Poison activity at human topoisomerase1 assessed as accumulation of nicked DNA at 20 uM using supercoiled pUC19 as substrate pretreated with substrate for 45 mins followed by enzyme addition measured by agarose gel electrophoresis relative to control
[20] = system: SW-620; experiment: Cell cycle arrest in human SW620 cells assessed as accumulation at subG1 phase at 1 uM after 48 hrs by propidium iodide staining based flow cytometric method (reference value: 4.1 to 11.3 %); assay type: functional
[21] = system: HeLa; experiment: Cell cycle arrest in human HeLa cells assessed as accumulation at subG1 phase at 5 uM after 48 hrs by propidium iodide staining based flow cytometric method (reference value: 17 to 20.1 %); assay type: functional
[22] = system: HeLa; experiment: Cell cycle arrest in human HeLa cells assessed as accumulation at subG1 phase at 1 to 5 uM after 24 hrs by propidium iodide staining based flow cytometric method; assay type: functional
[23] = system: Calf thymus DNA; experiment: Binding affinity to calf thymus DNA at 1 to 50 uM by circular dichroism spectral analysis; assay type: nucleic-acid assay; conditions: Bos taurus
[24] = system: SW-620; experiment: Induction of apoptosis in human SW620 cells assessed as activation of caspase-2 at 1 uM measured after 48 hrs by colorimetric assay; assay type: functional, cell-based
[25] = system: SW-620; experiment: Cell cycle arrest in human SW620 cells assessed as accumulation at subG1 phase at 1 to 5 uM after 24 hrs by propidium iodide staining based flow cytometric method; assay type: functional
[26] = target: DNA topoisomerase 2-alpha (Homo sapiens) (UniProt P11388); experiment: Poison activity at human topoisomerase2 assessed as accumulation of linear DNA at 10 to 50 uM using supercoiled pUC19 as substrate pretreated with substrate for 45 mins followed by […] measured by ethidium bromide staining based agarose gel electrophoresis
Sequence of DNA topoisomerase 2-alpha (Homo sapiens) (P11388 whole entry): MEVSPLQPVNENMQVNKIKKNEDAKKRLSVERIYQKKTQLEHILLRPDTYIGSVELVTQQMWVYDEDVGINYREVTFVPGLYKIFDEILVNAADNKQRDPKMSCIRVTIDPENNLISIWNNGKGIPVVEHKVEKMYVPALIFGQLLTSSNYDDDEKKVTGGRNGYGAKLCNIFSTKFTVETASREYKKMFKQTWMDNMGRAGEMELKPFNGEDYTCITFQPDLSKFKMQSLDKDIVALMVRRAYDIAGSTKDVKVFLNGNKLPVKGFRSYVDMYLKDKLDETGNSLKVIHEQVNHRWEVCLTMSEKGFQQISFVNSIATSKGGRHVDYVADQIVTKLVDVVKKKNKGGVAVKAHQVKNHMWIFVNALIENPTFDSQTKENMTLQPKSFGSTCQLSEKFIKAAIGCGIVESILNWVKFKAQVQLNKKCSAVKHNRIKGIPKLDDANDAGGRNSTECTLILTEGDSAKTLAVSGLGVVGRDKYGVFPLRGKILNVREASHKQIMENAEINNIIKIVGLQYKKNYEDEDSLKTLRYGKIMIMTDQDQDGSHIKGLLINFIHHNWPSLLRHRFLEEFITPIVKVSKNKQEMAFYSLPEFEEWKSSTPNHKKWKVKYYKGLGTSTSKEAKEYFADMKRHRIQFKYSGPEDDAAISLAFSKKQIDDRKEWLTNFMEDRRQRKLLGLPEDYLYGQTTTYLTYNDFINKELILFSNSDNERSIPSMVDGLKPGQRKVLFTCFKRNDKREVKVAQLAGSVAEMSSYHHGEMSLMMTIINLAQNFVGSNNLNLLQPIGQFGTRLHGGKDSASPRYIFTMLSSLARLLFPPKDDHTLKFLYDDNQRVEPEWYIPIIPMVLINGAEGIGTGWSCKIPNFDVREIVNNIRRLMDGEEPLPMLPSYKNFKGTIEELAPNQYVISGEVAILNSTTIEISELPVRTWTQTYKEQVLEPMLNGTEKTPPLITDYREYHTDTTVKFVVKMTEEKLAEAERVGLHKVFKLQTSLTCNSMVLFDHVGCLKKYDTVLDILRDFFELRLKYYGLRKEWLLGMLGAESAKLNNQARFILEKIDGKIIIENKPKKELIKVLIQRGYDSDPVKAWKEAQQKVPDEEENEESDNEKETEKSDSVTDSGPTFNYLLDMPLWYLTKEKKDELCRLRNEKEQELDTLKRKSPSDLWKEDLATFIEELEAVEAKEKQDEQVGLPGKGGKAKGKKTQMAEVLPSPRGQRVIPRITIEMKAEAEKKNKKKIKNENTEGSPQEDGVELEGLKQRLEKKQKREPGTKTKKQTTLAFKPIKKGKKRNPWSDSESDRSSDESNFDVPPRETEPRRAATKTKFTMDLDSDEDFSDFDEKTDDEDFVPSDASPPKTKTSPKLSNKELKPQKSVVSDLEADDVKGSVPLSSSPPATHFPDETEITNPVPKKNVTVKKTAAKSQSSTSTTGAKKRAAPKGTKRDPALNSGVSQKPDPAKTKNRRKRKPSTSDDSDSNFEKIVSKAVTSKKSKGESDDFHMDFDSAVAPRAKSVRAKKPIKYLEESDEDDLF

[27] = system: SW-620; experiment: Induction of apoptosis in human SW620 cells assessed as activation of caspase-6 at 1 uM measured after 48 hrs by colorimetric assay; assay type: functional, cell-based
[28] = system: HeLa; experiment: Induction of apoptosis in human HeLa cells assessed as activation of caspase-2 at 1 uM measured after 48 hrs by colorimetric assay; assay type: functional, cell-based
[29] = system: SW-620; experiment: Cell cycle arrest in human SW620 cells assessed as accumulation at subG1 phase at 5 uM after 48 hrs by propidium iodide staining based flow cytometric method (reference value: 4.1 to 11.3 %); assay type: functional
[30] = system: SW-620; experiment: Induction of apoptosis in human SW620 cells assessed as phenotypic changes after 24 to 48 hrs by microscopic analysis; assay type: functional, cell-based
[31] = system: HeLa; experiment: Cell cycle arrest in human HeLa cells assessed as accumulation at subG1 phase at 1 uM after 48 hrs by propidium iodide staining based flow cytometric method (reference value: 17 to 20.1 %); assay type: functional
[32] = system: HeLa; experiment: Induction of apoptosis in human HeLa cells assessed as activation of caspase-8 at 1 uM after 24 to 48 hrs by colorimetric assay; assay type: functional, cell-based
[33] = system: SW-620; experiment: Induction of apoptosis in human SW620 cells assessed as activation of caspase-8 at 1 uM after 24 to 48 hrs by colorimetric assay; assay type: functional, cell-based
[34] = system: HeLa; experiment: Induction of apoptosis in human HeLa cells assessed as phenotypic changes after 24 to 48 hrs by microscopic analysis; assay type: functional, cell-based

Structure (SMILES) | IC50 [1] [µM] | IC50 [2] [µM] | IC50 [3] [µM] | IC50 [4] [µM] | IC50 [5] [µM] | ΔTm [6] [°C] | IC50 [8] [µM] | Drug uptake [9] | ΔTm [10] [°C] | Drug uptake [11] | Drug uptake [12] | ΔTm [13] [°C] | other results
O=C1c2ccccc2CN1c1nc2ccc(C3=NCCN3)cc2[nH]1 | 16.6 | 6.12 | 8.67 | 2.9 | 4.71 |  |  |  |  |  |  |  | 
N#Cc1ccc2nc(/N=C3\c4ccccc4CN3c3nc4ccc(C#N)cc4[nH]3)[nH]c2c1 | 17.9 | 75.7 | 70 | 0.02 | > 100 | -0.4 | > 100 | Active | -0.5 | Active | Active |  | Activity [7]: inactive
CC(C)NC(=N)c1ccc2nc(N3Cc4ccccc4C3=O)[nH]c2c1 | > 100 | 84.3 | 71 | 0.93 | 5.72 |  |  |  |  |  |  |  | 
N#Cc1ccc2nc(N3Cc4ccccc4C3=O)[nH]c2c1 | 10 | 24.1 | > 100 | 5.06 | 15.8 |  |  |  |  |  |  |  | 
c1ccc2c(c1)CN(c1nc3ccccc3[nH]1)/C2=N/c1nc2ccccc2[nH]1 | 7.85 | 9.32 | > 100 | 7.47 | 22.4 | -0.7 |  |  | -0.5 |  |  | -0.6 | 
CC(C)NC(=N)c1ccc2nc(/N=C3\c4ccccc4CN3c3nc4ccc(C(=N)NC(C)C)cc4[nH]3)[nH]c2c1.Cl.Cl | 84.8 | 96.8 | > 100 | 66.1 | > 100 | 12.9 | > 100 | Active |  | Active | Active | 7 | fold change (FC) [14]: 2.2; inhibition (qualitative) [15]: Active; Activity [16]: Active; Activity [17]: Active
c1ccc2c(c1)CN(c1nc3ccccc3s1)/C2=N/c1nc2ccccc2s1 | 0.82 | 4.68 | 6.98 | 0.08 | 4.87 | -1.3 | 11.1 | Active | -2.2 | Active | Active |  | Activity [7]: inactive
CC[C@@]1(O)C(=O)OCc2c1cc1n(c2=O)Cc2cc3ccccc3nc2-1 |  |  |  |  |  |  |  |  |  |  |  |  | fold change (FC) [14]: 2.5 to 3.2; fold change (FC) [18]: 2; Activity [17]: Active; fold change (FC) [19]: 2.3 to 2.9
N#Cc1ccc2nc(N3Cc4ccccc4C3=O)sc2c1 | 61.5 | 54.7 | > 100 | 9.93 | 44.5 |  |  |  |  |  |  |  | 
Cl.Cl.c1ccc2c(c1)CN(c1nc3ccc(C4=NCCN4)cc3s1)/C2=N/c1nc2ccc(C3=NCCN3)cc2s1 | 35 | 74.5 | > 100 | 1.48 | 31.8 | 10.5 | 12.6 | Active | 12.2 | Active | Active | 6.8 | fold change (FC) [14]: 3.5; inhibition (qualitative) [15]: Active; Activity [16]: Active; fold change (FC) [18]: 1.5 to 3.7; Activity [17]: Active; fold change (FC) [19]: 3.7 to 9
CC(C)NC(=N)c1ccc2nc(/N=C3\c4ccccc4CN3c3nc4ccc(C(=N)NC(C)C)cc4s3)sc2c1.Cl.Cl | 68.8 | 52.9 | 49.5 | 90.1 | 4.72 | 18 | 40 | Active |  | Active | Active | 12.7 | inhibition (qualitative) [15]: Active
N#Cc1ccc2nc(/N=C3\c4ccccc4CN3c3nc4ccc(C#N)cc4s3)sc2c1 |  |  |  |  |  | -1.1 | 21.7 | Active | -0.7 | Active | Active |  | Activity [7]: inactive
Cl.O=C1c2ccccc2CN1c1nc2ccc(C3=NCCN3)cc2s1 | 0.78 | 1 | 0.74 | 0.7 | 0.2 | 3.1 | 1.5 | Active | 6.2 | Active | Active | 1.8 | Activity [20]: 34.4%; Activity [21]: 70.7%; Activity [22]: inactive; Activity [23]: Active; Activity [24]: Active; Activity [25]: inactive; Activity [26]: Active; Activity [27]: Active; Activity [28]: Active; Activity [29]: 85.9%; Activity [30]: Active; Activity [31]: 29.1%; Activity [32]: inactive; Activity [33]: inactive; Activity [34]: Active
N=C(N)c1ccc2nc(N3Cc4ccccc4C3=O)[nH]c2c1 | 91.1 | 52.2 | > 100 | > 100 | 46.9 |  |  |  |  |  |  |  | 
COc1cc([C@@H]2c3cc4c(cc3[C@@H](O[C@@H]3O[C@@H]5CO[C@@H](C)O[C@H]5[C@H](O)[C@H]3O)[C@H]3COC(=O)[C@H]23)OCO4)cc(OC)c1O |  |  |  |  |  |  |  |  |  |  |  |  | Activity [26]: Active
